# Key:
# [1] = Color passivation study on coated tiles (thermal and UV treatments); type: physicochemical
# Method: White tiles were purchased from Home Depot, and scrubbed with acetone and Kim wipes to remove any oils which would inhibit materials from adhering well. After scrubbing and allowing the tiles to dry, about 50 μL samples of each material were spread over an area approximately 3cm by 3cm, and allowed to dry under ambient conditions. A picture was taken, and then tiles were exposed to long and shortwave UV radiation for 5 minutes, and briefly heated using a butane torch, and photographed again to observe the change in color of each material.
# bacteria = assay: Antimicrobial efficacy / bacterial viability assay, summary statements without named organism; type: cell-based; details: equivalent concentrations of silver
# Method: Such an enhanced antimicrobial efficacy, for instance, may be attributed to a sustained release of silver, for example, either as a nanoparticle and/or its ionic form. By way of example, antimicrobial efficacy of the silica-silver nanocomposite particle was evaluated relative to that of the silver nanoparticle (AgNP) lacking the dielectric material encapsulation and aqueous silver nitrate (AgNO3) solutions, respectively, at equivalent concentrations of silver (if present). Note that, the silver nanoparticle and the silver nitrate, in this example, have been used as a positive growth control, while the silica nanoparticle (SiNP) lacking silver components, has been used as a negative growth control.
# In order to gain a better understanding of the antimicrobial efficacy of each material, we carried out a colony forming unit study over two time points, 1 and 4 hours. 96 well plates were prepared and incubated as described for M IC studies, and 10 μL samples from wells containing the concentrations of antimicrobial agents were taken at each time point. […] MH2 agar plates labeled by material and time point were then spotted with five 10 μL drops from each well at each concentration, allowed to dry in the sterile conditions of a biosafety cabinet, and then incubated 12-14 hours before colonies were counted. […]
smiles,measurement,setting,value
"O=[N+]([O-])[O-].[Ag+] [AgNO3, silver nitrate]",color of coated tile after thermal and UV treatments,[1]; UV radiation for 5 minutes and brief heating with butane torch,dark brown/black color
same,color of coated tile before thermal and UV treatments,"[1]; white tiles, dried coating",do not show formation of color
same,"antimicrobial efficacy, relative ranking",bacteria,most effective antimicrobial form of silver

# Source: US10070651B2, “Synthesis and characterization of antimicrobial non-color forming silver-silica nanocomposite” (UNIVERSITY OF CENTRAL FLORIDA RESEARCH FOUNDATION, INC., priority 2015, dated 2018)
